The target in one data set is Flt-3 kinase (Homo sapiens (Human), UniProt P36888). Nature of the data set: Flt-3 kinase biochemical activity assay (AlphaScreen, biotin-(E4Y)10 phosphorylation). To be noted: 100 μM ATP. The method, then: In one assay the biochemical activity IC50 values are determined with respect to inhibition of Flt-3 kinase activity, where inhibition of phosphorylation of a peptide substrate is measured as a function of compound concentration. Compounds to be tested, dissolved in DMSO (1 μL), are added to a white 384-well plate (Costar #3705). Working stocks of Flt-3 kinase (Invitrogen), biotin-(E4Y)10 substrate (Upstate Biotech, Cat#12-440), and ATP (Sigma, Cat#A-3377) are prepared in 25 mM Hepes pH 7.5, 5 mM MgCl2, 5 mM MnCl2, 1 mM DTT, and 0.01% Tween-20. All components are added to the 384-well plate for a final concentration of 1 ng/well Flt-3, 30 nM biotin-(E4Y)10 and 100 μM ATP in a volume of 20 μL. Each sample is at 5% DMSO. The plate is then incubated for 1 hour at room temperature. Just before use, working stocks of donor and acceptor beads from the AlphaScreen PY20 Detection Kit (PerkinElmer, Cat#676601M) are prepared in 25 mM Hepes pH 7.5, pH 7.4, 100 mM EDTA. 0.3% BSA. To stop the reaction, the plate is uncovered in the dark and 5 μL of Donor Beads solution (Streptavidin beads) is added to each well. The plate is incubated at room temperature for 20 minutes. Five microliters of Acceptor Beads solution (PY20 coated beads) are then added to each well. The final concentration of each bead is 10 μg/mL. The plates are incubated at room temperature for 60 minutes. Fluorescence signal is recorded on the Envision reader. Phosphorylated substrate results in binding of the PY20 antibody and association of the donor and acceptor beads such that signal correlates with kinase activity. The signal vs. compound concentration is used to determine the IC50.
Flt-3 kinase, sequence (P36888 27-993): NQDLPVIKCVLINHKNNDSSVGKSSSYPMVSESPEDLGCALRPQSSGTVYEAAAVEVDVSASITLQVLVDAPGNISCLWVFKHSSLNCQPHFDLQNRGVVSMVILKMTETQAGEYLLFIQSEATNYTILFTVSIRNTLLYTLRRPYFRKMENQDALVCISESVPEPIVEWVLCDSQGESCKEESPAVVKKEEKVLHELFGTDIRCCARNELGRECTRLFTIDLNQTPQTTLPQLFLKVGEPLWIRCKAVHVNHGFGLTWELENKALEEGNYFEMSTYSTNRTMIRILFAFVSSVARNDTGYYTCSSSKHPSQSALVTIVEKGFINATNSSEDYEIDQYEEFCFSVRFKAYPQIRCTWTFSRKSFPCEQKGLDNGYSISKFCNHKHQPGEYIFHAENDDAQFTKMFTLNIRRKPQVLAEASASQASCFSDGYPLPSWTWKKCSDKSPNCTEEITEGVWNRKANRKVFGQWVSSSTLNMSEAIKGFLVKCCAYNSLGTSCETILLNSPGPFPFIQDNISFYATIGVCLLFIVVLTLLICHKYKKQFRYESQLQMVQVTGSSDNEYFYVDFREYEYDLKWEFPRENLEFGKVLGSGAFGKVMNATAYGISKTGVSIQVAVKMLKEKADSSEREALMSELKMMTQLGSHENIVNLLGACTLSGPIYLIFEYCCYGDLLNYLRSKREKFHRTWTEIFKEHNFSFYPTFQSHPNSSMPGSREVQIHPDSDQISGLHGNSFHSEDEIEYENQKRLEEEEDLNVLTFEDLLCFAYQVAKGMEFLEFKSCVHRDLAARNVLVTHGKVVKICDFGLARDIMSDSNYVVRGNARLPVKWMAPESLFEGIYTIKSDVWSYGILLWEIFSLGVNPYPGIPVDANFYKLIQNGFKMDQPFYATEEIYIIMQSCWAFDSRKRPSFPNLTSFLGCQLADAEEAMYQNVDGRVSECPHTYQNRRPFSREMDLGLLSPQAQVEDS

Data set [1] can be described thus: Turbidity assay of relative solubility in aqueous buffers. Type of data set: physicochemical. To be noted: for turbidity threshold (L, M, H) 1.4: pH 1.4 as headed (method: SGF pH 1.5); for turbidity threshold (L, M, H) 4.5: pH 4.5 (SIF); for turbidity threshold (L, M, H) 6.8: pH 6.8 (SIF); for turbidity threshold (L, M, H) 7.4: pH 7.4 (HEPES). Put shortly: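 DMSO stocks (25 mM) were serially diluted 1:1 and spiked into SGF pH 1.5 (0.5M NaCl), SIF pH 4.5 and 6.8 (0.05M NaH2PO4) or HEPES pH 7.4 (10 mM HEPES, 150 mM NaCl). Absorbance was read at 490, 535 and 650 nm. Value is the concentration crossing OD 0.01, averaged over the three wavelengths.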

Another data set concerns the target CYP1A2 (Homo sapiens (Human), UniProt P05177). Nature of the data set: CYP enzyme inhibition, fluorescent substrate.
The target in the next data set is CYP2C19 (Homo sapiens (Human), UniProt P33261). Nature of the data set: CYP enzyme inhibition, fluorescent substrate. Put shortly: (§1)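 […]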
CYP2C19, sequence (P33261 whole entry): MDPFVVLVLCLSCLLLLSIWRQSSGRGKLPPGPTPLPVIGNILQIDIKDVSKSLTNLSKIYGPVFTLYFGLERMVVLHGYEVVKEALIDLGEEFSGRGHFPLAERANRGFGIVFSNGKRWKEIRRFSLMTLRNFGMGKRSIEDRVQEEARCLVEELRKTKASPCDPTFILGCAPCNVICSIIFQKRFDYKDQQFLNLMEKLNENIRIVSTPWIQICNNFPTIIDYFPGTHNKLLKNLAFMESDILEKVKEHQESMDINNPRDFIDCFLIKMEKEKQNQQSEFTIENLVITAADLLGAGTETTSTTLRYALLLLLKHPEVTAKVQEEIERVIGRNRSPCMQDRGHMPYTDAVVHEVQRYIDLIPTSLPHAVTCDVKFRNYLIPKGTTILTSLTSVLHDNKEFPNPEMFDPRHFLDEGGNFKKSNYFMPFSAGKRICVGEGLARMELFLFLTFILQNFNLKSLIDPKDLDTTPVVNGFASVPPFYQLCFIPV

For another data set, the target named is CYP2C9 (Homo sapiens (Human), UniProt P11712). The data set can be described thus: CYP enzyme inhibition, fluorescent substrate. In short, it runs like this:
as §1

The target in another data set is CYP2D6 (Homo sapiens (Human), UniProt P10635). The data set can be described thus: CYP enzyme inhibition, fluorescent substrate.
CYP2D6, sequence (P10635 whole entry): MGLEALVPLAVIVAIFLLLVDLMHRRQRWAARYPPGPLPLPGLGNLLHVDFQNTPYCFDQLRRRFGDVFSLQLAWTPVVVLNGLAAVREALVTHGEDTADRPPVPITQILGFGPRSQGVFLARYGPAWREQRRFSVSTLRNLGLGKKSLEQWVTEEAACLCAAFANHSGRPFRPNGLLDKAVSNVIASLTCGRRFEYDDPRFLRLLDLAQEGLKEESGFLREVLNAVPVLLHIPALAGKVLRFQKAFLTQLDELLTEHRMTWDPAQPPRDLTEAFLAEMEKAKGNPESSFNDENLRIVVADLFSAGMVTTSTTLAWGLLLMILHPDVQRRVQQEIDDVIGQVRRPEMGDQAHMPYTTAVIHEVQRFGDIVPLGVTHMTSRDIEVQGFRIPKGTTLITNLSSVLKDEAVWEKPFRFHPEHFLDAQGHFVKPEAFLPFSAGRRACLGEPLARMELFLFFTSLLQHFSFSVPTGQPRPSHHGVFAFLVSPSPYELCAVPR
Another data set deals with CYP3A4(BFC) (Homo sapiens (Human), UniProt P08684). Nature of the data set: CYP enzyme inhibition, fluorescent substrate. In short, it runs like this: as §1
CYP3A4(BFC), sequence (P08684 whole entry): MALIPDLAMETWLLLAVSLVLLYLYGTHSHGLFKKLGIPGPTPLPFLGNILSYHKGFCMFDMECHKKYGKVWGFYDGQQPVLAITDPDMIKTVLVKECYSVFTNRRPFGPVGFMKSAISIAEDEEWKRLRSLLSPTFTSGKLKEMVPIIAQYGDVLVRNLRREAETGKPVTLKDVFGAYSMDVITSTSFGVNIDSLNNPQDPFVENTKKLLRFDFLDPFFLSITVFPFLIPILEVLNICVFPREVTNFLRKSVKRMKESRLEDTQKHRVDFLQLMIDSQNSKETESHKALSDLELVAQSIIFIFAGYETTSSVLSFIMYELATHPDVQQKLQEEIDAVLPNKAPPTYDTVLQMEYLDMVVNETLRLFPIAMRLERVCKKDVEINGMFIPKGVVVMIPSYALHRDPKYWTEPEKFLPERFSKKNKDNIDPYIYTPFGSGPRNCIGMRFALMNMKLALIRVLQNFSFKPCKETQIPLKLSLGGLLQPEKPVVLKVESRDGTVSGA
For the next data set, the target named is CYP3A4(BQ) (Homo sapiens (Human), UniProt P08684). Nature of the data set: CYP enzyme inhibition, fluorescent substrate. Put shortly: as §1
CYP3A4(BQ), sequence (P08684 whole entry): as above
[2] abbreviates: read-out: Cyp IC50 (μM) 3A4(BFC), BFC substrate.
Setting [3] is: read-out: Cyp IC50 (μM) 3A4(BQ), BQ substrate.
The mark [4] stands for this setting: human, CYP2C9 enzyme (BD Biosciences), 45 min.

Where two headings read alike, the source gives them in different places. Some results are limits rather than exact numbers.

CYP1A2, sequence (P05177 whole entry): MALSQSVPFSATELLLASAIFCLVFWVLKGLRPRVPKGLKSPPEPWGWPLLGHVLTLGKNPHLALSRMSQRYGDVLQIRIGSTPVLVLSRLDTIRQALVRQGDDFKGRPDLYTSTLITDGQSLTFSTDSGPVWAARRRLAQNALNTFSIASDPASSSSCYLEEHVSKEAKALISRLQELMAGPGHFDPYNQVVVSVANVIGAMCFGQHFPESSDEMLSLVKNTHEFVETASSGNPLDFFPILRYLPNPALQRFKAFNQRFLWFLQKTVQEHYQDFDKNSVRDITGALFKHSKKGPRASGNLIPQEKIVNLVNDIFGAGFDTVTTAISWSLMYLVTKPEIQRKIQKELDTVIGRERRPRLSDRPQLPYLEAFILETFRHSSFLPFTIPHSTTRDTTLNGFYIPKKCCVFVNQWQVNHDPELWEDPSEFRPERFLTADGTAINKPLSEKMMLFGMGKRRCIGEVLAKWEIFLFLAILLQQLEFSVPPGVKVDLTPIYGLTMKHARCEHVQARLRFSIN
CYP2C9, sequence (P11712 whole entry): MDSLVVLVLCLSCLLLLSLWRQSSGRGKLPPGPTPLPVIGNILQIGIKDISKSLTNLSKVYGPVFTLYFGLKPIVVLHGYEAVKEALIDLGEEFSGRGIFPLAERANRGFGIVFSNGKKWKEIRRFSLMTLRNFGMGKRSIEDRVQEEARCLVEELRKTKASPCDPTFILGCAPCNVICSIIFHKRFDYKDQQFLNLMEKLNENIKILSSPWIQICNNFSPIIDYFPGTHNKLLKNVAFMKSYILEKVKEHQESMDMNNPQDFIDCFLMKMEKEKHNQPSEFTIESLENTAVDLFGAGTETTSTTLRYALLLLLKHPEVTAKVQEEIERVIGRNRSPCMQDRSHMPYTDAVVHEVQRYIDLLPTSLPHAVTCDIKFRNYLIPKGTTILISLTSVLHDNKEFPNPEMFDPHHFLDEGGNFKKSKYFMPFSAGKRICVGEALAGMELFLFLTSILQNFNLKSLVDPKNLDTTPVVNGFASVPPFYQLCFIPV

For `Clc1cnc2[nH]cc(Cc3ccc(NCc4ccc(Cl)nc4)nc3)c2c1` [Compound P-2003], the half-maximal inhibitory concentration (IC50) against Flt-3 kinase is less than 0.1 µM; at CYP1A2, more than 10 µM; on CYP2C19 (read-out: Cyp IC50 (μM) 2C19), 5 to 10 µM; on CYP2C9 (read-out: Cyp IC50 (μM) 2C9) it was less than 5 µM; at CYP2D6 (read-out: Cyp IC50 (μM) 2D6) it was more than 10 µM; on CYP3A4(BFC) (setting [2]), 5 to 10 µM. The IC50 on CYP3A4(BQ) (setting [3]) is more than 10 µM. Besides, the “turbidity threshold (L, M, H) 1.4” value in data set [1] is given as “H (high solubility if the threshold concentration is >250 μM)”. Further, the “turbidity threshold (L, M, H) 4.5” value in data set [1] is “M (moderate solubility if the threshold concentration is 31.3 μM to 250 μM)”. Moreover, the “turbidity threshold (L, M, H) 6.8” value in data set [1] is “L (low solubility if the threshold concentration is <31.3 μM)”. Besides, the “turbidity threshold (L, M, H) 7.4” value in data set [1] is “L (low solubility if the threshold concentration is <31.3 μM)”.
`Fc1ccc(CNc2ccc(Cc3c[nH]c4ncc(Cl)cc34)cn2)cn1` [Compound P-2004, [5-(5-chloro-1H-pyrrolo[2,3-b]pyridin-3-ylmethyl)-pyridin-2-yl]-(6-fluoro-pyridin-3-ylmethyl)-amine]: the IC50 is less than 0.1 µM on Flt-3 kinase; more than 10 µM on CYP1A2 (read-out: Cyp IC50 (μM) 1A2); 5 to 10 µM against CYP2C19; less than 5 µM on CYP2C9 (read-out: Cyp IC50 (μM) 2C9); 5 to 10 µM against CYP2D6; less than 5 µM at CYP3A4(BFC) (setting [2]). The molecule also yielded an IC50 at CYP3A4(BQ) of 5 to 10 µM. Besides, in data set [1], the “turbidity threshold (L, M, H) 1.4” value was “H (high solubility if the threshold concentration is >250 μM)”. The “turbidity threshold (L, M, H) 4.5” value in data set [1] is “M (moderate solubility if the threshold concentration is 31.3 μM to 250 μM)”. In data set [1], the “turbidity threshold (L, M, H) 6.8” value was “M (moderate solubility if the threshold concentration is 31.3 μM to 250 μM)”. For the same molecule, the “turbidity threshold (L, M, H) 7.4” value in data set [1] was “M (moderate solubility if the threshold concentration is 31.3 μM to 250 μM)”.
In the case of `Cc1cnc2[nH]cc(Cc3ccc(NCc4ccc(C(F)(F)F)nc4)nc3F)c2c1` [Compound P-2031, [6-Fluoro-5-(5-methyl-1H-pyrrolo[2,3-b]pyridin-3-ylmethyl)-pyridin-2-yl]-(6-trifluoromethyl-pyridin-3-ylmethyl)-amine], the IC50 against Flt-3 kinase was less than 0.1 µM; at CYP1A2 (human, 15 min), more than 10 µM; against CYP2C9 (setting [4]) it was less than 5 µM; at CYP2D6 (read-out: Cyp IC50 (μM) 2D6), more than 10 µM; against CYP3A4(BFC), 5 to 10 µM; against CYP3A4(BQ), 5 to 10 µM. Moreover, in data set [1], the “turbidity threshold (L, M, H) 1.4” value is “M (moderate solubility if the threshold concentration is 31.3 μM to 250 μM)”. Further, the “turbidity threshold (L, M, H) 4.5” value in data set [1] is reported as “L (low solubility if the threshold concentration is <31.3 μM)”. In addition, the “turbidity threshold (L, M, H) 6.8” value in data set [1] is given as “L (low solubility if the threshold concentration is <31.3 μM)”. Further, the “turbidity threshold (L, M, H) 7.4” value in data set [1] is reported as “L (low solubility if the threshold concentration is <31.3 μM)”.
Take `COc1cnc2[nH]cc(Cc3ccc(NCc4ccc(Cl)cc4)nc3F)c2c1` [Compound P-2032, (4-Chloro-benzyl)-[6-fluoro-5-(5-methoxy-1H-pyrrolo[2,3-b]pyridin-3-ylmethyl)-pyridin-2-yl]-amine]: the IC50 at Flt-3 kinase is less than 0.1 µM; against CYP1A2 it was 5 to 10 µM; at CYP2C9 (setting [4]), less than 5 µM; on CYP2D6 (read-out: Cyp IC50 (μM) 2D6), more than 10 µM; on CYP3A4(BFC) (setting [2]), more than 10 µM; on CYP3A4(BQ) (setting [3]) it was more than 10 µM. Also, the “turbidity threshold (L, M, H) 1.4” value in data set [1] is “M (moderate solubility if the threshold concentration is 31.3 μM to 250 μM)”. The “turbidity threshold (L, M, H) 4.5” value in data set [1] is on record as “L (low solubility if the threshold concentration is <31.3 μM)”. For the same molecule, the “turbidity threshold (L, M, H) 6.8” value in data set [1] was “L (low solubility if the threshold concentration is <31.3 μM)”. Also, the “turbidity threshold (L, M, H) 7.4” value in data set [1] is “L (low solubility if the threshold concentration is <31.3 μM)”.
On Flt-3 kinase, `COc1cnc2[nH]cc(Cc3ccc(NCc4ccccc4Cl)nc3F)c2c1` [Compound P-2034, (2-chloro-benzyl)-[6-fluoro-5-(5-methoxy-1H-pyrrolo[2,3-b]pyridin-3-ylmethyl)-pyridin-2-yl]-amine] came in with an IC50 of less than 0.1 µM.
Turning to `COc1ccc(CNc2ncc(Cc3c[nH]c4ncc(Cl)cc34)cn2)cn1` [Compound P-2038, [5-(5-Chloro-1H-pyrrolo[2,3-b]pyridin-3-ylmethyl)-pyrimidin-2-yl]-(6-methoxy-pyridin-3-ylmethyl)-amine], the IC50 on Flt-3 kinase was less than 0.1 µM; against CYP1A2 (human, 15 min) it was more than 10 µM; on CYP2C19 (read-out: Cyp IC50 (μM) 2C19), more than 10 µM; at CYP2C9, 5 to 10 µM; at CYP3A4(BFC) (setting [2]) it was more than 10 µM; on CYP3A4(BQ) (setting [3]), more than 10 µM. In addition, the “turbidity threshold (L, M, H) 1.4” value in data set [1] is listed as “H (high solubility if the threshold concentration is >250 μM)”. In addition, in data set [1], the “turbidity threshold (L, M, H) 4.5” value was “L (low solubility if the threshold concentration is <31.3 μM)”. For the same molecule, in data set [1], the “turbidity threshold (L, M, H) 6.8” value is reported as “L (low solubility if the threshold concentration is <31.3 μM)”. Also, in data set [1], the “turbidity threshold (L, M, H) 7.4” value is listed as “L (low solubility if the threshold concentration is <31.3 μM)”.
`Fc1nc(NCc2ccc(Cl)cn2)ccc1Cc1c[nH]c2ncccc12` [Compound P-2044, (5-Chloro-pyridin-2-ylmethyl)-[6-fluoro-5-(1H-pyrrolo[2,3-b]pyridin-3-ylmethyl)-pyridin-2-yl]-amine] came in with an IC50 on Flt-3 kinase of more than 0.1 µM.
Regarding `Cc1cc(CNc2ccc(Cc3c[nH]c4ncc(Cl)cc34)c(F)n2)ccn1` [Compound P-2075, [5-(5-Chloro-1H-pyrrolo[2,3-b]pyridin-3-ylmethyl)-6-fluoro-pyridin-2-yl]-(2-methyl-pyridin-4-ylmethyl)-amine], in data set [1], the “turbidity threshold (L, M, H) 1.4” value is on record as “H (high solubility if the threshold concentration is >250 μM)”. Also, the “turbidity threshold (L, M, H) 4.5” value in data set [1] is on record as “M (moderate solubility if the threshold concentration is 31.3 μM to 250 μM)”. The “turbidity threshold (L, M, H) 6.8” value in data set [1] was “L (low solubility if the threshold concentration is <31.3 μM)”. In data set [1], the “turbidity threshold (L, M, H) 7.4” value is “M (moderate solubility if the threshold concentration is 31.3 μM to 250 μM)”. Besides, the IC50 against CYP1A2 is 5 to 10 µM; on CYP2C19 (read-out: Cyp IC50 (μM) 2C19), less than 5 µM; at CYP2C9 (read-out: Cyp IC50 (μM) 2C9), less than 5 µM; at CYP2D6 (read-out: Cyp IC50 (μM) 2D6), more than 10 µM; at CYP3A4(BFC) (setting [2]) it was less than 5 µM; on CYP3A4(BQ) it was 5 to 10 µM.
For the molecule `Cc1cnc2[nH]cc(Cc3cnc(NCc4ccc(C(F)(F)F)nc4)c(F)c3)c2c1` [Compound P-2146, [3-Fluoro-5-(5-methyl-1H-pyrrolo[2,3-b]pyridin-3-ylmethyl)-pyridin-2-yl]-(6-trifluoromethyl-pyridin-3-ylmethyl)-amine], the “turbidity threshold (L, M, H) 1.4” value in data set [1] is “H (high solubility if the threshold concentration is >250 μM)”. In addition, in data set [1], the “turbidity threshold (L, M, H) 4.5” value is “M (moderate solubility if the threshold concentration is 31.3 μM to 250 μM)”. Also, the “turbidity threshold (L, M, H) 6.8” value in data set [1] was “M (moderate solubility if the threshold concentration is 31.3 μM to 250 μM)”. Further, in data set [1], the “turbidity threshold (L, M, H) 7.4” value is listed as “L (low solubility if the threshold concentration is <31.3 μM)”. The IC50 against CYP1A2 (human, 15 min) was more than 10 µM; at CYP2C19 (read-out: Cyp IC50 (μM) 2C19) it was less than 5 µM; against CYP2C9, 5 to 10 µM; on CYP2D6 (read-out: Cyp IC50 (μM) 2D6), more than 10 µM; at CYP3A4(BFC) (setting [2]), more than 10 µM; at CYP3A4(BQ) (setting [3]), more than 10 µM.

The values above are taken from patent US9096593B2, “Compounds and methods for kinase modulation, and indications therefor” (Plexxikon Inc., priority 2009, dated 2015).
